Test [1] has as its system human peripheral blood mononuclear cells. Description: α TNF production by human peripheral blood mononuclear cells. Particulars: 18 hours. In kind it is cell-based. As for the experimental part:
Mononuclear cells of peripheral blood are recovered from buffy coats of 6 healthy donors. Such buffy coat cells are resuspended and mononuclear cells are isolated by centrifugation on a Ficoll-Paque gradient (Amersham Pharmacia). Purified mononuclear cells are resuspended into RPMI-1640 medium supplemented with 10% FCS, antibiotics, mercaptoethanol and L-glutamine. Cell concentration is adjusted to 2×10^6 viable cells/ml
100 μl of each one of these solutions of acyl dipeptide-like compounds bearing an accessory functional side chain spacer, diluted 100-, 10- or 1-fold in RPMI medium 1640, are dispensed into a microtiter plate. Samples are tested in triplicates, and each microtiter plate includes a negative control made up of plain medium. Dilutions of E. coli LPS (ranging grom 1 to 0.00001 μg/ml) are used as a positive control.
100 μl of the cell suspension are added to each well containing product dilute solutions or control. Cells are incubated with the products for 18 hours in an incubator at 37° C., under 5% CO2 and a moisture saturated atmosphere.
At the end of the incubation period, microtiter plates are centrifuged, and the supernatant fluids are pooled and frozen at −80° C. as aliquots until time of ELISA assay.
Concentration of α TNF secreted by mononuclear cells is determined by chemiluminescent ELISA (QuantiGlo #QTAOO R&D kit). 4-fold supernatant fluid dilutions are dispensed into each well of the microtiter plate to which anti-αTNF antibodies are bound. The microtiter plate is incubated for 4 hours at room temperature. After washing, peroxidase-conjugated anti-human a TNF antibody is added. Following a 2 hour incubation period and thorough washing, a chemiluminescent substrate is added and chemilunescence is read after 20 minutes. α TNF content in the supernatant fluid is determined with respect to a standard curve covering the 7000 to 0.7 pg/ml range.
Results are expressed in pg/ml of α TNF produced. Results derive from an experiment representative of acyl-dipeptide-like compound activity

The next test has as its system murine macrophage cells. Kind of test: nitric oxide production by murine macrophage cells (Griess). In kind it is cell-based, C57/BL6 mice. Particulars: for Max concentration: concentration at maximum amplitude; for EC50 conc: concentration corresponding to 50% of maximum amplitude; for Min concentration: lowest concentration inducing a significant response. An excerpt: Six-week old male C57/BL6 mice are killed by CO2 inhalation. The hip, femur, tibia and posterior appendage bones are removed. The bone marrow is extracted from the bone lumen by injecting Dulbecco's Modified Eagle Medium (DH medium) from the end portions which had been excised. The stem cells are washed and resuspended (approximate cell concentration 4000 cells/ml) in DH medium supplemented with 20% equine serum (SH) and 30% L929 cell supernatant. L929 is a murine fibroblast cell line the supernatant fluid of which is rich in growth factor for macrophage cells (M-CSF). The cell suspension is divided into Petri dishes which are incubated for 8 days in an incubator at 37° C. under 8% CO2 and a moisture saturated atmosphere.
After 8 days, the stem cells have differentiated into mature macrophage cells. The macrophage cells are scraped off by rapid cooling, washed and resuspended in DH medium supplemented with 5% foetal calf serum (FCS), amino acids and antibiotics. The cell density is adjusted to 700 000 cells/ml.
Products previously dissolved in DH medium supplemented with 5% FCS, amino acids and antibiotics are serially diluted directly in microtiter plates. The products are tested in triplicates and each microtiter plate comprises a negative control containing plain medium. The final volume in each well is 100 μl.
100 μl of cell suspension are added to diluted solutions of such products and the cells are incubated for 22 hours in an incubator at 37° C., under 8% CO2 and a moisture saturated atmosphere. At the end of the incubation period with the products, 100 μl of supernatant are withdrawn and the nitrite concentration is determined by running a Griess reaction.
100 μl of Griess reagent (5 mg/ml of sulfanilamide+0.5 mg/ml of N-(1-naphtylethylene diamine hydrochloride)) in 2.5% aq. phosphoric acid, are added to each well. The microtiter plates are read with a spectrophotometer at 562 nm wavelength against a reference sample at 690 nm. The nitrite concentration is proportional to nitric oxide content being formed. The nitrite content is determined based on a standard curve.
The results are given as mean value±standard deviation and plotted as a dose versus response curve.
From this dose versus response curve, 3 curve variables are computed:
Max: maximum curve amplitude and corresponding concentration
EC50: concentration corresponding to 50% of maximum amplitude
Min: lowest concentration inducing a significant proliferation corresponding to the blank±3× standard deviation value
Concentration values corresponding to EC50 and Min are determined from line segments joining different points on the curve.
If the curve has no plateau phase but an ascending configuration for the highest concentration being tested, a “>” sign is shown before “Max” and “EC50” values.
For orientation: The Griess reaction detects nitrite, a stable product of nitric oxide.

Test [2] relates to CD83, CD86 surface markers of predendritic cells (DC-6). Description: dendritic cell differentiation test: CD83, CD86 surface marker expression. In kind it is cell-based, human. Particulars: for CD86 % CD / CD86 Fluorescence: 10 μg/ml; for CD86 % CD: products redissolved in pyrogen-free water, % of dendritic cells; for CD86 Fluorescence: mean fluorescence value. How it is done: The ability of products of the invention to induce maturation of predendritic cells into dendritic cells was assessed. The following parameters were measured: FITC-Dextran conjugate take-up and expression of CD83, CD86 surface markers.
Mononucleated cells of peripheral blood are isolated from buffy coats of healthy donors. Purified monocytes by adherence selection are resuspended in RPMI-1640 medium containing 10% of foetal calf serum (FCS), GM-CSF and IL-4 (10 ng/ml) at a density of 1×10^6 cells/ml. Cells are divided into Petri Dishes (10×10^6 cells per dish) and cultured for 6 days with a change to fresh medium after 3 days. Cells thus obtained are called predendritic cells (DC-6). Maturation of predendritic cells into mature dendritic cells is achieved by incubating cells with diluted solutions of the products or LPS (positive control) for 3 more days (see product section below). At day 9 (DC-9), cells are harvested and analyzed for different indicators of dendritic cell maturation: assessment of CD83, CD86 surface marker expression as well as of their ability to take up FITC-Dextran conjugate. All these parameters are analyzed by an EPICS-XL-MCL model FACS (Coulter Immunology, Hialeah, […]).
Expression of surface markers is given as % of mean fluorescence of LPS-activated cells (positive control); FITC-Dextran conjugate take-up rate is calculated based on take-up of cells maintained in basic medium and is expressed in %.
Solutions are incubated at 37° C. for 20 minutes, subjected to vigorous stirring during 3 minutes and then diluted to 100 μg/ml in RPMI-1640 culture medium and used in diluted state at concentrations ranging from 10 μg/ml to 0.03 μg/ml. Reference Product: E. coli lipopolysaccharide (LPS, DIFCO, Detroit, Mich., U.S.A.), as a 5 mg/ml stock solution in PBS. An intermediate 100 μg/ml solution is prepared in RPMI 1640 culture medium. Concentrations of dilute solutions being tested range from 1 μg/ml to 0.03 μg/ml.
In another series of experiments, all acyl dipeptide-like compounds were freeze-dried and directly redissolved into pyrogen-free water. Different products as well as LPS control are tested at a concentration of 10 μg/ml. Results are given as % of dendritic cells and mean fluorescence value for dextran phagocytosis or CD86 surface marker expression.

Converted amounts (≈) assume the structure as drawn.

As for `CCCCCCCCCCCC(=O)O[C@H](CCCCCCCCCCC)CC(=O)N[C@H](CC(=O)NCCCN)C(=O)NCCC[C@H](CO)NC(=O)C[C@H](O)CCCCCCCCCCC` [OM-197-AP, N—[(R)-3-dodecanoyloxytetradecanoyl]-D-aspartic acid, α-N-{(4R)-5-hydroxy-4-[(R)-3-hydroxy-tetradecanoylamino]pentyl}-amide β-N-(3-aminopropyl)amide], in test [1] (product 1 μg/ml), the “α TNF produced” value was 428 pg/mL. Moreover, the “α TNF produced” value in test [1] (product 10 μg/ml) stood at 116 pg/mL. For the same molecule, the “α TNF produced” value in test [1] (product 100 μg/ml) is 84 pg/mL. In the test on murine macrophage cells, this molecule came in with a Max concentration of more than 100 µg/mL, an EC50 conc of more than 13.69 µg/mL and a Min concentration of 1.87 µg/mL. In addition, in test [2], the “CD86 % CD” value came to 62.0% and the “CD86 Fluorescence” value is listed as 4.8.

Consider `CCCCCCCCCCCC(=O)O[C@H](CCCCCCCCCCC)CC(=O)N[C@H](CC(=O)O)C(=O)NCCC[C@H](COC(=O)CCCCCNC(=O)CCC(=O)OC[C@H]1O[C@@H](n2cc(C)c(=O)[nH]c2=O)C[C@@H]1N=[N+]=[N-])NC(=O)C[C@H](O)CCCCCCCCCCC` [OM-197-MC-AC-Succ-AZT], for which the “α TNF produced” value in test [1] (product 1 μg/ml) was 108 pg/mL. In addition, the “α TNF produced” value in test [1] (product 10 μg/ml) amounted to 224 pg/mL. Besides, in test [1] (product 100 μg/ml), the “α TNF produced” value was found to be 64 pg/mL. In the test with murine macrophage cells, this molecule came in with a Max concentration of more than 100 µg/mL, an EC50 conc of more than 74.89 µg/mL and a Min concentration of 55.98 µg/mL. In addition, in test [2], the “CD86 % CD” value worked out at 81.4% and the “CD86 Fluorescence” value is on record as 6.1.

Consider `CCCCCCCCCCCC(=O)O[C@H](CCCCCCCCCCC)CC(=O)N[C@H](CC(=O)O)C(=O)NCCC[C@H](COC(=O)CCCCCN)NC(=O)C[C@H](O)CCCCCCCCCCC` [OM-197-MC-AC, N—[(R)-3-dodecanoyloxytetradecanoyl]-D-aspartic acid, α-N-{(4R)-5-(6-aminohexanoyloxy)-4-[(R)-3-hydroxytetradecanoylamino]pentyl}amide], for which the “α TNF produced” value in test [1] (product 1 μg/ml) was determined as 12 pg/mL. In addition, in test [1] (product 10 μg/ml), the “α TNF produced” value was determined as 140 pg/mL. Moreover, the “α TNF produced” value in test [1] (product 100 μg/ml) is 144 pg/mL. In the test with murine macrophage cells, this molecule gave a Max concentration of 25 µg/mL, an EC50 conc of 4.91 µg/mL (≈ 5 µM) and a Min concentration of 0.91 µg/mL. Besides, in test [2], the “CD86 % CD” value was 67.4% and the “CD86 Fluorescence” value was 5.2.

Take `CCCCCCCCCCCC(=O)O[C@H](CCCCCCCCCCC)CC(=O)N[C@H](CC(=O)N[C@@H](CCCCN)C(=O)O)C(=O)NCCC[C@H](COC(=O)CCCCCN)NC(=O)C[C@H](O)CCCCCCCCCCC` [OM-197-Lys-AC]: in test [1] (product 1 μg/ml), the “α TNF produced” value worked out at 232 pg/mL. In test [1] (product 10 μg/ml), the “α TNF produced” value is 184 pg/mL. For the same molecule, the “α TNF produced” value in test [1] (product 100 μg/ml) is 256 pg/mL. Moreover, in the test on murine macrophage cells, the Max concentration was more than 50 µg/mL, the EC50 conc was more than 11.06 µg/mL and the Min concentration amounted to 1.46 µg/mL. In addition, in test [2], the “CD86 % CD” value turned out to be 93.5% and the “CD86 Fluorescence” value was found to be 6.9.

On to `CCCCCCCCCCCC(=O)O[C@H](CCCCCCCCCCC)CC(=O)N[C@H](CC(=O)O)C(=O)NCCC[C@H](COC(=O)CCCCC(O)CO)NC(=O)C[C@H](O)CCCCCCCCCCC` (stereo partly drawn) [OM-197-MC-FV5, N—[(R)-3-dodecanoyloxytetradecanoylamino]-D-aspartic acid, α-N-{(4R)-5-hydroxy-4-[(R)-3-hydroxytetra-decanoylamino]-pentyl}amide 5-O-(6,7-dihydroxyheptanoate)], for which the “α TNF produced” value in test [1] (product 1 μg/ml) was 0 pg/mL. For the same molecule, the “α TNF produced” value in test [1] (product 10 μg/ml) turned out to be 104 pg/mL. The “α TNF produced” value in test [1] (product 100 μg/ml) was found to be 116 pg/mL. In the test on murine macrophage cells, this molecule registered a Max concentration of 16 µg/mL, an EC50 conc of 2.56 µg/mL (≈ 2.53 µM) and a Min concentration of 0.67 µg/mL. In test [2], the “CD86 % CD” value was found to be 74.5% and the “CD86 Fluorescence” value stood at 5.6.

`CCCCCCCCCCCC(=O)O[C@H](CCCCCCCCCCC)CC(=O)N[C@H](CC(=O)N[C@@H](CCCCN)C(=O)O)C(=O)NCCC[C@H](CO)NC(=O)C[C@H](O)CCCCCCCCCCC` [OM-197-Lys]: the “α TNF produced” value in test [1] (product 1 μg/ml) came to 284 pg/mL. Moreover, in test [1] (product 10 μg/ml), the “α TNF produced” value turned out to be 164 pg/mL. Also, the “α TNF produced” value in test [1] (product 100 μg/ml) stood at 20 pg/mL. In the test on murine macrophage cells, the Max concentration was found to be 40 µg/mL, the EC50 conc was found to be 2.23 µg/mL (≈ 2.24 µM) and the Min concentration is less than 0.47 µg/mL. In test [2], the “CD86 % CD” value is reported as 21.2% and the “CD86 Fluorescence” value was 2.1.

For `CCCCCCCCCCCC(=O)O[C@H](CCCCCCCCCCC)CC(=O)NC(CCOP(=O)(O)O)C(=O)NCCC[C@H](COC(=O)CCCCCN)NC(=O)C[C@H](O)CCCCCCCCCCC` (mixture of isomers) [OM-197-MP-AC (R/S, R), (3RS,9R)-3-[(R)-3-dodecanoyloxytetradecanoylamino]-4oxo-5-aza-9-[(R)-3-hydroxytetradecanoylamino]-decan-10-ol 1-dihydrogen-phosphate(6-aminohexanoate)], in test [1] (product 1 μg/ml), the “α TNF produced” value worked out at 244 pg/mL. The “α TNF produced” value in test [1] (product 10 μg/ml) was 156 pg/mL. Besides, in test [1] (product 100 μg/ml), the “α TNF produced” value was 160 pg/mL. In addition, in the test on murine macrophage cells, the “nitric oxide production” value was “higher proliferation response as compared to positive control”, the Max concentration was more than 100 µg/mL, the EC50 conc is more than 10.69 µg/mL and the Min concentration came out at 1.04 µg/mL. Moreover, in test [2], the “CD86 % CD” value is 80.0% and the “CD86 Fluorescence” value is recorded as 6.0. The “concentration inducing an increase in expression of CD83 and CD86 surface markers” value in test [2] (FIGS. 75 & 76) amounted to 0.1 µg/mL.
